Assay results: PubChem BioAssay AID1288 (Columbia University Molecular Screening Center, 2008)
Active and inactive are the calls of the source. How the calls were made is not given here.

Test: E-selectin induction blockers, endothelial cells – imaging, retest plus dose response, cell count, confirmation (AID 1288);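 further: 0% = stimulated vehicle wells and 100% = unstimulated vehicle wells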
Conditions: human endothelial cells, TNFa-induced E-selectin, imaging; at 2 µM; hits give high values

Compound | inhibition
O=C(C1CCN(S(=O)(=O)c2cnc[nH]2)CC1)N1CCN(c2ncccn2)CC1 | 31.7% (inactive)
CCOC(=O)c1ccccc1NC(=O)c1ccc(N(C)S(C)(=O)=O)cc1 | 15.2% (inactive)
O=C(c1ccccc1F)N1CCN(c2ccccc2F)CC1 | 27.8% (inactive)
C=CCN1C(c2cccc(C(F)(F)F)c2)=CS/C1=C(/C#N)c1nnc(N2CCOCC2)n1-c1ccccc1 | 31.5% (inactive)
COc1ccccc1-c1nc(-c2ccc(C)nc2OC)no1 | 0.65% (inactive)
COC(=O)CSc1nc(N)nc(C)c1Br | 3.71% (inactive)
O=C1NCCCc2c1oc1cc(Br)c(O)c(Br)c21 | 15.8% (inactive)
CC1CCN(S(=O)(=O)c2ccc(NC(=O)CSc3ncccc3C(=O)O)cc2)CC1 | 5.02% (inactive)
CCOC(=O)/C(C#N)=C1/C=Cc2ccccc2N1CC | 10.7% (inactive)
Cc1cccc(NC(=O)CCSc2nc(C)cc(C)n2)c1 | 4.57% (inactive)
O=C(NC1CCCCC1)C(c1cccs1)N(C(=O)c1ccco1)c1ccc2c(c1)OCCO2 (stereo not given) | 8.94% (inactive)
COc1cc(C2C(C#N)=C(N)Oc3cc(C)n(CCc4ccccc4)c(=O)c32)cc2c1OCO2 (stereo not given) | 4.3% (inactive)
Cc1ccc(NC(=O)COc2ccc(-n3ccnc3)cc2)cc1Cl | 9.69% (inactive)
CCN(/N=C/c1ccc(Cl)cc1)c1cc(=O)n(C)c(=O)[nH]1 | 12.2% (inactive)
CSc1cccc(NC(=O)C2CCCN(S(=O)(=O)c3ccc(F)cc3)C2)c1 (stereo not given) | 35.8% (inactive)
Cc1oc2c(C)c(O)ccc2c(=O)c1-c1cnn(-c2ccccc2)c1 | -7.41% (inactive)
O=C(O)C(=O)/C(=C\c1ccccc1)c1ccc2ccccc2n1 | 23.7% (inactive)
C=C(C)CC(NCCc1ccccc1)c1ccco1 (stereo not given) | 1.31% (inactive)
CCCn1c(CN2CCN(c3cccc(Cl)c3)CC2)nc2c1c(=O)n(C)c(=O)n2C | 7.73% (inactive)
CCOC(=O)C1CCCN(c2ncnc3c2cnn3-c2ccc(Cl)cc2)C1 (stereo not given) | 38.5% (inactive)
O=C(COc1ccc([N+](=O)[O-])cc1Cl)NCCc1ccccc1 | -2.48% (inactive)
COc1ccc(C(=O)C(CO)Oc2ccccc2OC)cc1OC (stereo not given) | 1.41% (inactive)
CCN(CC)S(=O)(=O)c1ccc2[nH]c(=O)cc(C(=O)Nc3cccc(C(C)=O)c3)c2c1 | 8.83% (inactive)
COc1cc(S(=O)(=O)N(Cc2ccccn2)Cc2ccco2)ccc1-n1cnnn1 | 2% (inactive)
CCCCNc1nc(CC)c2c(c1C#N)CCCC2 | 4.98% (inactive)

Compound | inhibition
CCOC(=O)c1cc(-c2ccccc2)sc1NC(=S)Nc1cccc(C)n1 | -0.25% (inactive)
CCC(=O)c1ccc(N2CCOCC2)c(F)c1 | 10.3% (inactive)
O=S1(=O)CCN(CCc2c[nH]c3ccccc23)CC1 | -4.95% (inactive)
COc1ccc(/C(C)=N/OCC(=O)N2CC3(C)CC2CC(C)(C)C3)cc1 (stereo not given) | 17.2% (inactive)
O=c1c2c(n3nnnc3n1-c1ccccc1)-c1ccccc1CC21CCCC1 | -3.55% (inactive)
Cc1cccc(NC(=O)Nc2ccc(C#N)cc2)n1 | 4.19% (inactive)
CCCc1[nH]nc2c1C(c1ccc(O)c(OC)c1)C(C#N)=C(N)O2 (stereo not given) | 16.6% (inactive)
Cc1ccc(N2CCN(/N=C/c3cccs3)CC2)cc1 | 1.13% (inactive)
O=C(Nc1nc(-c2ccccc2)c(-c2ccccc2)s1)c1ccc(S(=O)(=O)N(CCCl)CCCl)cc1 | -7.24% (inactive)
COc1ccccc1CC1(C)NC(=O)N(CC(=O)N2CC(C)OC(C)C2)C1=O (stereo not given) | 9.89% (inactive)
Cc1ccc(/C=C/C(=O)O)cc1S(=O)(=O)NCCO | 1.34% (inactive)
N#Cc1cc2sc3nnc(-c4ccncc4)n3c2cc1C#N | 24.9% (inactive)
CCOC(=O)c1c(NC(=O)CSc2nnc(-c3ccccc3)n2CC)sc(C(C)=O)c1C | 8.92% (inactive)
CC(C)(C)OC(=O)NNC(=O)NC12CC3CC(CC(C3)C1)C2 | 3.2% (inactive)
CCC(=O)N1CCc2cc(Br)cc(S(=O)(=O)NCc3ccco3)c21 | 0.76% (inactive)
O=C(Nc1ccc(F)cc1)N1CCOCC1 | 29.5% (inactive)
Cc1ccc2cc(C#N)c(N3CCCC3)nc2c1C | 8.05% (inactive)
CCC(C)NC(=O)C(NS(=O)(=O)c1cccc2nsnc12)c1ccccc1 (stereo not given) | 9.11% (inactive)
O=c1c2ccccc2n2c(-c3cccc(F)c3)nnc2n1Cc1ccccc1 | -8.49% (inactive)
N#CCc1ccc(NS(=O)(=O)c2cccs2)cc1 | 7.74% (inactive)
Nc1ccc(Br)cc1-c1nc2ccccc2[nH]c1=O | -8.67% (inactive)
Cc1ccc2oc(=O)n(CCCOc3ccccc3)c2c1 | 26.2% (inactive)
CC(/C=C/c1ccco1)=N\NC(=O)c1cc(C)[nH]n1 | 12% (inactive)
Cc1cc2nc(-c3ccc(SCc4ccc(C#N)cc4)nc3)[nH]c2cc1C | 1.98% (inactive)
COc1ccc(Br)cc1CN(C)CC(=O)Nc1c(Cl)cccc1Cl | 0.05% (inactive)

Compound | inhibition
CN1CCC(N(C)C(=S)NC(=O)C23CC4CC(CC(C4)C2)C3)CC1 | 28.5% (inactive)
CC1(C)NC(=O)N(CC(O)COc2cc3ccccc3cc2C(=O)N2CCCCC2)C1=O (stereo not given) | 7% (inactive)
CCCCOc1ccc(-c2nnn(C(C)C(=O)OCC)n2)cc1 (stereo not given) | 27.1% (inactive)
COCCN1CN(S(=O)(=O)c2ccccc2)c2nc3ccccc3nc21 | 2.89% (inactive)
O=C1CC(N(Cc2cccs2)C(=O)Nc2ccccc2)C(=O)N1c1ccc(Cl)cc1 (stereo not given) | -1.04% (inactive)
CCc1ccc(N2CC(C(=O)Nc3cccnc3)CC2=O)cc1 (stereo not given) | 30.5% (inactive)
CC(CCc1ccccc1)NC(=O)/C=C/c1ccc(Cl)cc1 (stereo not given) | 14.9% (inactive)
Cc1ccc(-n2c(=O)c3c4c(sc3n(Cc3cc(=O)n5ccccc5n3)c2=O)CCC4)cc1C | 3.95% (inactive)
O=C(NCN1C(=O)C2C3C=CC(C3)C2C1=O)Nc1nncs1 (stereo not given) | 1.86% (inactive)
NC(=O)NOCc1ccccc1 | -1.04% (inactive)
CCCCN(CCCC)S(=O)(=O)c1ccc(NC(=O)c2cccs2)cc1 | -4.73% (inactive)
CCOC(=O)c1ccc(Nc2cc(C)nc(N3CCOCC3)n2)cc1 | 5.21% (inactive)
CS(=O)(=O)C1=NSC2=NC(=O)/C(=C\c3cccn3-c3ccc(Cl)cc3)C(=N)N21 | 17.3% (inactive)
Cc1cc(C)c(C#N)c(=N)o1 | -5.81% (inactive)
COc1ccc(Br)cc1C(=O)O | -3.94% (inactive)
O=C(O)/C=C/c1ccc2ccccc2n1 | -2.31% (inactive)
CCOC(=O)c1cnc2ccc(C)cc2c1Nc1ccc(N2CCOCC2)cc1 | 5.86% (inactive)
CC(C)(C)NC(=O)NC(=O)CSc1ncn[nH]1 | 6.43% (inactive)
C=CCc1cccc(/C=N/NC(=O)CCCNc2ccc(C)cc2)c1O | 11.2% (inactive)
Cc1ccc(CNC(=O)C2CCN(S(=O)(=O)c3c(C)noc3/C=C/c3ccco3)CC2)cc1 | 4.12% (inactive)
O=C(Cc1cccs1)NNC(=S)NC(=O)c1ccc(F)c(F)c1 | 6.92% (inactive)
CN(C)c1ccc(NC(=O)COC(=O)Cn2nnc3ccccc32)cc1 | 0.53% (inactive)
COc1ccccc1C1/C(=C(/O)c2ccc(C)cc2)C(=O)C(=O)N1CCN1CCOCC1 (stereo not given) | 6.7% (inactive)
COc1ccc(C(=O)OCCNC(=O)c2c(Cl)nc3ccccn23)cc1 | 3.04% (inactive)
CCCCCCOC(=O)/C=C/c1c(C)[nH]c(=O)[nH]c1=O | 30.8% (inactive)

Compound | inhibition
N=c1sccn1CC(=O)NCCc1ccc(Cl)cc1 | 3.43% (inactive)
COc1cccc(-c2cc3c(=O)n(-c4ccccc4)c(=S)[nH]c3s2)c1 | 24.4% (inactive)
O=C(c1c(Cl)nc2sccn12)N1CCCc2ccccc21 | 0.11% (inactive)
CCCOc1ccc(/C(O)=C2/C(=O)C(=O)N(CCCn3ccnc3)C2c2ccco2)cc1 (stereo not given) | 0.88% (inactive)
CN1CCCN(S(=O)(=O)c2ccc(Cl)c(Cl)c2)CC1 | 0.45% (inactive)
COc1ccc(Nc2nc(C)cc(C)c2C#N)cc1OC | 6.96% (inactive)
COc1ccc(-n2nc3c(c2NC(=O)c2cc(Br)ccc2Cl)CS(=O)C3)cc1 (stereo not given) | -1.7% (inactive)
Cn1c(NCCN2CCCCC2)cc(=O)n(C)c1=O | 22.7% (inactive)
CCOC(=O)N1CCN(C(=O)c2ccc(Oc3ccc([N+](=O)[O-])cc3)cc2)CC1 | 18.9% (inactive)
Cc1ccn2cc(CCNS(=O)(=O)c3ccc(F)c(C(F)(F)F)c3)nc2c1 | 0.82% (inactive)
Cc1ccc(C)n1-c1cccc(NC(=O)c2ccccc2)c1 | 0.87% (inactive)
O=C(/C=C/c1ccc(F)cc1)NC(=S)Nc1ccccc1C(=O)NC1CCCCC1 | 2.9% (inactive)
Cc1ccc(-c2cc(NC(=O)CCl)n(-c3ccccc3)n2)cc1 | -2.61% (inactive)
O=C1CC(Sc2nnc(-c3ccccc3O)o2)C(=O)N1c1ccccc1 (stereo not given) | 9.02% (inactive)
CC(Sc1nnc2c(n1)C1CCC2(C)C1(C)C)C(=O)Nc1ccccc1 (stereo not given) | 9.66% (inactive)
O=C(Cn1ncc2c(=O)oc3ccccc3c21)N1CCc2ccccc2C1 | 9.96% (inactive)
CC1CC(Nc2ccccc2)=CC(=O)O1 (stereo not given) | -4.3% (inactive)
CC1(C)CC(=O)C2=C(C1)NCN(Cc1ccc3c(c1)OCO3)C2 | 3.18% (inactive)
CCC(CC)C(=O)c1c[nH]c(C(=O)NCCCN2CCOCC2)c1 | 2.64% (inactive)
CCOc1ccc(C)cc1-n1nc2ccccc2n1 | 34.6% (inactive)
Cc1ccc(/C=N/n2c(=O)c(C(C)(C)C)nn3cnnc23)cc1 | 6.53% (inactive)
O=C(Nc1ccc(-c2nc3cccnc3s2)cc1)c1ccc(Br)o1 | 5.96% (inactive)
Cn1c(N)c(C(=O)COC(=O)CN2C(=O)c3ccccc3C2=O)c(=O)n(C)c1=O | 17.5% (inactive)
O=C(COc1ccc(-c2nnco2)cc1)NCc1ccccc1Cl | 10.1% (inactive)
CCOC(=O)N1CCN(C(=O)C2CCN(S(=O)(=O)c3cc(OC)ccc3OC)CC2)CC1 | 1.55% (inactive)
